From patent US20150004620A1, “METHOD OR DEVICE FOR IDENTIFYING INHIBITOR OF EPITHELIAL MESENCHYMAL TRANSITION” (Agency for Science, Technology and Research, priority 2011, published 2015)
Like-named read-outs stand apart in the source and are kept apart here.

How the values were obtained:
Format in all cases: cell-based
[1] = tested on: IGF-1-induced EMT in NBT-II cells; assay: EMT spot migration assay, IGF-1-induced; details: IGF-1-induced EMT (150 ng/ml IGF-1), CDR dose response from 6.67 μM, read-out: Cell Dispersion IC 50, IGF-1
Method: (§1) NBT-II cells were stably transfected with mcherry-fluorescent H2B and maintained in DMEM supplemented with 10% fetal bovine serum (FBS, Thermo Scientific), 1 μg/ml puromycin (Sigma) and 100 units/ml penicillin-streptomycin (1× pen-strep, Invitrogen). Cells were grown to 80% confluency in tissue culture flasks prior to plating. Cells were trypsinized and concentrated to a density of 5×10^6 cell/ml in CO2-independent medium (Invitrogen) supplemented with 10% FBS. The cell suspension was then evenly dispersed into the wells of two columns of a 96-well V-bottom plate. Using a robotic liquid-handling station (Bravo, Agilent Technologies), 0.5 μl of cell suspension was transferred from the two columns of the cell suspension-loaded plate and deposited into the center of the wells of two columns of a 96-well clear bottom, black assay plate (Corning). This process was repeated six times so that all 96 wells of the assay plate were deposited with a cell suspension spot. The plate was then sealed to minimize evaporation of the cell suspension spots and transferred to a 37° C., 5% CO2 incubator to allow for cells to attach to the culture surface. After 1 hour, the plate was gently washed with medium once to remove unattached cells, refreshed with 100 μl of assay medium (DMEM supplemented with 10% FBS and 1× pen-strep), and then further incubated to allow for cell-cell contacts to establish in the cell colonies.
(§2) Four tiled, non-overlapping images were acquired around the center of each well, and were then stitched together during image analysis to generate a montage covering an area of 3.2 mm×3.2 mm. These images (T1) represent the initial state of the cell colonies before EMT induction.
(§3) After the T1 images were acquired, 1 μl of test compounds were transferred from compound stock plates and added to the assay plates. Appropriate negative controls (1 μl DMSO) and positive controls (1 μl 1.0 mM compound in DMSO) were also added into columns 1 and 12 of each assay plate, respectively. […] The cultures were then further incubated overnight.
(§4) The next day, 50 μl of growth factor-containing medium was added to each well of the assay-plates. For each of the growth factor-induced EMT spot migration assays, the final growth factor concentrations in each well is optimized to be 20 ng/ml EGF (Sigma), 4 ng/ml HGF (Calbiochem) or 150 ng/ml IGF-1 (R&D Systems), respectively. The cultures were then incubated for another 24 hours, to allow for EMT and sufficient cell motility/dispersion to occur in the cell colonies.
(§5) Finally, the cell colonies were imaged again using the microplate imager, as described above. These images (T2) represent the final state of the cell colonies after compound treatment and EMT induction. The acquired T1 and T2 image sets for each assay plate were then sent for image analysis.
(§6) The acquisition of each well was obtained by four adjacent field images with no interstice in between. Each field image was loaded and nuclei were initially segmented independently of other fields to prevent artifact at the field border. Nuclei segmentation was achieved by combining a wavelet transform which is robust to noise and unhomogeneous background, and a watershed algorithm based on intensities to split nuclei clusters. Mask of nuclei segmentation of the different fields were then stitched together in order to obtain a large segmentation of the whole well. Cell bodies were estimated by applying a morphological dilation on the nucleus segmentation using a disk of 30 pixels (48 μm) in diameter. In cells that are contiguous, such as in a cell colony, nuclei segmentation dilation will result in the formation of continuous region areas with surrounding cells which can then be identified as colonies.
(§7) Total cell number and spreading coefficient values for each well were then exported into an Excel sheet.

[2] = tested on: EGF-induced EMT in NBT-II cells; assay: EMT spot migration assay, EGF-induced; details: for IC50: read-out: Cell Dispersion IC 50, EGF; for Cell dispersion pattern at T2 (FIG. 1D): 6.67 μM compound and EGF
Method: as §1, §2, §3, §4, §5, §6, §7

E-cadherin = assay: Western blot of EMT marker E-cadherin in growth factor-treated NBT-II cells; details: NBT-II cells, 0.5, 2 and 8 μM compound overnight, then EGF, HGF or IGF-1 for 24 h (FIG. 7)
Method: NBT-II cells were treated with compounds at 0.5, 2 and 8 μM overnight and incubated with a growth factor for 24 h. Cells were lysed with protease/phosphatase inhibitor-containing RIPA buffer. Proteins are separated in 8% polyacrylamide gels and transferred to PDVF membranes. Membranes were blocked in 5% BSA and incubated at 4° C. overnight with MMP-13 (Millipore), E-cadherin (BD) and α-tubulin (Sigma) primary antibodies. Membranes were then developed with HRP-conjugated secondary antibody (Amersham) and ECL substrate (Millipore).
The possibilities that ALK5, MEK, PI3K and SRC targeting compounds could modulate the expression of EMT markers, such as E-cadherin and matrix metalloproteinase-13 (MMP-13) under EMT-activated conditions were also investigated (FIG. 7). With the exception of P13K inhibitor GDC-0941, the compounds in general abrogated MMP-13 expression in growth factor-treated samples, PI3K inhibition has been previously shown to augment MMP-13 expression. […] These findings are consistent with previous reports showing that ALK5, MEK and SRC play a role in cell motility and tumor progression, while PI3K predominately regulates cell proliferation.

[3] = tested on: HGF-induced EMT in NBT-II cells; assay: EMT spot migration assay, HGF-induced; details: for IC50: HGF-induced EMT (4 ng/ml HGF), CDR dose response from 6.67 μM, read-out: Cell Dispersion IC 50, HGF
Method: as §1, §2, §3, §4, §5, §6, §7

MMP-13 = assay: Western blot of EMT marker MMP-13 in growth factor-treated NBT-II cells; details: NBT-II cells, 0.5, 2 and 8 μM compound overnight, then growth factor for 24 h (FIG. 7)
[4] = EGF-induced EMT (20 ng/ml EGF), NBT-II cells, CDR dose response from 6.67 μM

| IC50 [1] [nM] | IC50 [2, 4] [nM] | IC50 [3] [nM] | Compound | E-cadherin expression (E-cadherin) | IC50 [2] [nM] | MMP-13 expression (MMP-13) | Cell dispersion pattern at T2 (FIG. 1D) ([2]; NBT-II cells) | Inhibition of HGF-induced EMT (growth factor specificity) ([3]; spot migration assay) |
| --- | --- | --- | --- | --- | --- | --- | --- | --- |
| 120 | 69 | 130 | Cc1cccc(-c2nn(C(=S)Nc3ccccc3)cc2-c2ccnc3ccccc23)n1 [A83-01] | restored the E-cadherin protein levels | – | – | – | – |
| > 5000 | 330 | > 5000 | COc1cc2ncnc(Nc3cccc(Cl)c3)c2cc1OC [AG1478] | – | – | – | – | – |
| 880 | 840 | 790 | Cn1cnc2c(F)c(Nc3ccc(Br)cc3Cl)c(C(=O)NOCCO)cc21 [AZD6244] | – | – | – | – | – |
| 170 | > 5000 | 2300 | Cc1cc(N2CCOCC2)cc2[nH]c(-c3c(NC[C@@H](O)c4cccc(Cl)c4)cc[nH]c3=O)nc12 [BMS-536924] | – | – | – | – | – |
| 1200 | 1000 | 820 | O=C(NOCC1CC1)c1ccc(F)c(F)c1Nc1ccc(I)cc1Cl [CI-1040] | – | – | – | – | – |
| 1900 | 1100 | 1400 | NC(=O)c1ccc(-c2nc(-c3ccc4c(c3)OCCO4)c(-c3ccccn3)[nH]2)cc1 [D4476] | – | – | – | – | – |
| 500 | 740 | 380 | CS(=O)(=O)N1CCN(Cc2cc3nc(-c4cccc5[nH]ncc45)nc(N4CCOCC4)c3s2)CC1 [GDC-0941] | restored the E-cadherin protein levels | – | exception | – | – |
| > 5000 | > 5000 | 94 | Cn1cc(-c2ccc3nnc(C(F)(F)c4ccc5ncccc5c4)n3n2)cn1 [JNJ-38877605] | – | – | – | – | – |
| > 5000 | 620 | > 5000 | CS(=O)(=O)CCNCc1ccc(-c2ccc3ncnc(Nc4ccc(OCc5cccc(F)c5)c(Cl)c4)c3c2)o1 [Lapatinib] | – | – | – | – | – |
| > 5000 | 550 | > 5000 | COc1cc2ncnc(Nc3cccc(Br)c3)c2cc1OC [PD153035] | – | – | – | pattern of inhibition | – |
| > 5000 | 1200 | > 5000 | CNc1cc2c(Nc3cccc(Br)c3)ncnc2cn1 [PD158780] | – | – | – | – | – |
| 400 | 680 | 380 | Oc1cccc(-c2nc(N3CCOCC3)c3oc4ncccc4c3n2)c1 [PI-103] | – | – | – | – | – |
| 620 | 950 | 400 | COc1ccc2c(c1OC)N=C(NC(=O)c1cccnc1)N1CCN=C21 [PIK-90] | – | – | – | – | – |
| 1200 | 2300 | 2000 | Cc1ccc(-c2nn(C(C)(C)C)c3ncnc(N)c23)cc1 [PP1] | – | – | – | pattern of inhibition | – |
| 820 | 1600 | 940 | NC(=O)c1ccc(-c2nc(-c3ccc4c(c3)OCO4)c(-c3ccccn3)[nH]2)cc1 [SB-431542] | – | – | – | – | – |
| 150 | 85 | 110 | Fc1ccc(Cl)cc1-c1nc(Nc2ccncc2)c2nccnc2n1 [SD-208] | – | – | – | – | – |
| > 5000 | 800 | > 5000 | COc1cc2ncnc(Nc3ccc(O)c(Br)c3)c2cc1OC [WHI-P154] | – | – | – | – | – |
| 660 | 850 | 410 | FC(F)c1nc2ccccc2n1-c1nc(N2CCOCC2)nc(N2CCOCC2)n1 [ZSTK474] | – | – | – | – | – |

| Compound | IC50 [1] [nM] | IC50 [2, 4] [nM] | IC50 [3] [nM] | E-cadherin expression (E-cadherin) | IC50 [2] [nM] | MMP-13 expression (MMP-13) | Cell dispersion pattern at T2 (FIG. 1D) ([2]; NBT-II cells) | Inhibition of HGF-induced EMT (growth factor specificity) ([3]; spot migration assay) |
| --- | --- | --- | --- | --- | --- | --- | --- | --- |
| C#Cc1cccc(Nc2ncnc3cc(OCCOC)c(OCCOC)cc23)c1 [Erlotinib] | > 5000 | – | > 5000 | – | 950 | – | – | – |
| c1ccc(-c2[nH]ncc2-c2ccnc3ccccc23)nc1 [LY-364947] | 240 | 140 | 180 | – | – | – | – | – |
| O=C(NOC[C@H](O)CO)c1ccc(F)c(F)c1Nc1ccc(I)cc1F [PD0325901] | 8.9 | 31 | 20 | augment E-cadherin expression | – | – | – | – |
| OCCn1cc(-c2cnc3nnn(Cc4ccc5ncccc5c4)c3n2)cn1 [PF-04217903] | > 5000 | > 5000 | 55 | – | – | – | – | specifically inhibited HGF-induced EMT |
